Source: patent US9957237B2, “Crystal form of neptinib di-p-methylbenzenesulfonate, preparation method thereof, and pharmaceutical composition containing same” (SHENZHEN NEPTUNUS PHARMACEUTICAL RESEARCH INSTITUTE CO., …, priority 2014, dated 2018)

Assay: Stability studies (stress testing, accelerated test for 10 days) on crystal forms and free base
Format: physicochemical
Method: Detection conditions: Chromatographic column: Waters C18; Mobile phase A: acetonitrile-mobile phase B (70:30); Mobile phase B: 0.05 mol/l ammonium dihydrogen phosphate solution (pH=7.3); Column temperature: 30° C.; Detection wavelength: 247 nm.
Detection method: High performance liquid chromatography method, Pharmacopoeia of the People's Republic of China, Part II Appendix VD

[1] = Day 10, relative humidity 92.5%
[2] = Day 10, stress condition not given

## CCOc1cc2ncnc(Nc3ccc(F)c(Cl)c3)c2cc1NC(=O)/C=C/CN(C)C [Free base, (E)-N-(4-((3-chloro-4-fluorophenyl)amino)-7-ethoxyquinazolin-6-yl)-4-(dimethylamino)but-2-enamide, reference compound]
40° C., Day 5
  Content (%): 98.96%
40° C., Day 10
  Content (%): 98.59%
60° C., Day 5
  Content (%): 96.77%
60° C., Day 10
  Content (%): 95.15%
Day 0
  Content (%): 99.37%
  Maximum single impurity (%): 0.45 (RRT: 1.11) %
Day 5, 40° C.
  Maximum single impurity (%): 0.46 (RRT: 1.11) %
Day 5, 60° C.
  Maximum single impurity (%): 2.14 (RRT: 0.44) %
Day 10, 40° C.
  Maximum single impurity (%): 0.71 (RRT: 0.43) %
Day 10, 60° C.
  Maximum single impurity (%): 2.88 (RRT: 0.43) %
Under the condition of 60° C.
  Stability (result in words): obviously degraded

## CCOc1cc2ncnc(Nc3ccc(F)c(Cl)c3)c2cc1NC(=O)/C=C/CN(C)C.Cc1ccc(S(=O)(=O)O)cc1.Cc1ccc(S(=O)(=O)O)cc1.O.O [crystal form β, (E)-N-(4-((3-chloro-4-fluorophenyl)amino)-7-ethoxyquinazolin-6-yl)-4-(dimethylamino)but-2-enamide (Neptinib) di-p-methylbenzene sulfonate 2 hydrate]
Day 0
  Maximum single impurity (%): 0.017 (RRT: 1.22) %
  Purity (%): 99.97%
  Total impurities (%): 0.03%
  Water (%): 4.4%
Day 5, 40° C.
  Maximum single impurity (%): 0.020 (RRT: 1.22) %
  Purity (%): 99.97%
  Total impurities (%): 0.03%
  Water (%): 4.4%
Day 5, 60° C.
  Maximum single impurity (%): 0.151 (RRT: 0.93) %
  Purity (%): 99.83%
  Total impurities (%): 0.17%
  Water (%): 4.3%
Day 5, light irradiation
  Maximum single impurity (%): 0.032 (RRT: 1.17) %
  Purity (%): 99.94%
  Total impurities (%): 0.06%
  Water (%): 4.4%
Day 5, relative humidity 75%
  Maximum single impurity (%): 0.019 (RRT: 1.22) %
  Purity (%): 99.97%
  Total impurities (%): 0.03%
  Water (%): 4.4%
Day 5, relative humidity 92.5%
  Maximum single impurity (%): 0.018 (RRT: 1.22) %
  Purity (%): 99.97%
  Total impurities (%): 0.03%
  Water (%): 4.5%
Day 10, 40° C.
  Maximum single impurity (%): 0.020 (RRT: 122) %
  Purity (%): 99.98%
  Total impurities (%): 0.02%
  Water (%): 4.5%
Day 10, 60° C.
  Maximum single impurity (%): 0.020 (RRT: 1.22) %
  Purity (%): 99.94%
  Total impurities (%): 0.06%
  Water (%): 4.4%
Day 10, light irradiation
  Maximum single impurity (%): 0.177 (RRT: 0.93) %
  Purity (%): 99.80%
  Total impurities (%): 0.20%
  Water (%): 4.5%
Day 10, relative humidity 75%
  Maximum single impurity (%): 0.022 (RRT: 1.22) %
  Purity (%): 99.98%
  Total impurities (%): 0.02%
  Water (%): 4.4%
[1]
  Maximum single impurity (%): 0.021 (RRT: 1.22) %
  Purity (%): 99.98%
  Total impurities (%): 0.02%
  Water (%): 4.5%
[2]
  Maximum single impurity (%): 0.022 (RRT: 1.22) %
  Purity (%): 99.98%
  Total impurities (%): 0.02%
  Water (%): 4.3%

## CCOc1cc2ncnc(Nc3ccc(F)c(Cl)c3)c2cc1NC(=O)/C=C/CN(C)C.Cc1ccc(S(=O)(=O)O)cc1 [crystal form α, (E)-N-(4-((3-chloro-4-fluorophenyl)amino)-7-ethoxyquinazolin-yl)-4-(dimethylamino)but-2-enamide (Neptinib) di-p-methylbenzene sulfonate 1.5 hydrate]
Day 0
  Maximum single impurity (%): 0.021 (RRT: 1.22) %
  Purity (%): 99.98%
  Total impurities (%): 0.02%
  Water (%): 3.3%
Day 5, 40° C.
  Maximum single impurity (%): 0.022 (RRT: 1.22) %
  Purity (%): 99.98%
  Total impurities (%): 0.02%
  Water (%): 3.3%
Day 5, 60° C.
  Maximum single impurity (%): 0.022 (RRT: 1.22) %
  Purity (%): 99.96%
  Total impurities (%): 0.04%
  Water (%): 3.3%
Day 5, light irradiation
  Maximum single impurity (%): 0.051 (RRT: 0.93) %
  Purity (%): 99.93%
  Total impurities (%): 0.07%
  Water (%): 3.1%
Day 5, relative humidity 75%
  Maximum single impurity (%): 0.021 (RRT: 1.22) %
  Purity (%): 99.98%
  Total impurities (%): 0.02%
  Water (%): 3.1%
Day 5, relative humidity 92.5%
  Maximum single impurity (%): 0.021 (RRT: 1.22) %
  Purity (%): 99.98%
  Total impurities (%): 0.02%
  Water (%): 3.2%
Day 10, 40° C.
  Maximum single impurity (%): 0.022 (RRT: 1.22) %
  Purity (%): 99.98%
  Total impurities (%): 0.02%
  Water (%): 3.3%
Day 10, 60° C.
  Maximum single impurity (%): 0.020 (RRT: 1.22) %
  Purity (%): 99.96%
  Total impurities (%): 0.04%
  Water (%): 3.3%
Day 10, light irradiation
  Maximum single impurity (%): 0.055 (RRT: 0.93) %
  Purity (%): 99.91%
  Total impurities (%): 0.09%
  Water (%): 3.1%
Day 10, relative humidity 75%
  Maximum single impurity (%): 0.022 (RRT: 1.22) %
  Purity (%): 99.98%
  Total impurities (%): 0.02%
  Water (%): 3.1%
[1]
  Maximum single impurity (%): 0.022 (RRT: 1.22) %
  Purity (%): 99.98%
  Total impurities (%): 0.02%
  Water (%): 3.2%
[2]
  Maximum single impurity (%): 0.022 (RRT: 1.22) %
  Purity (%): 99.98%
  Total impurities (%): 0.02%
  Water (%): 3.2%
